The text below walks through data of US5817634A, “Methods of treating diabetes mellitus and clycogen storage disease” (The UAB Research Foundation, priority 1994, dated 1998).

Entries after “also recorded” stand apart in the source; their conditions may differ.

The target in assay [1] is T1, glycogenin (Bos taurus, UniProt Q29RN2).
T1 construct: chromatography of a 105,000×g supernatant from a homogenate of beef kidney on DE-53 cellulose; tissue local slaughter house; host or cells: beef kidney
T1 sequence (Q29RN2 1-333): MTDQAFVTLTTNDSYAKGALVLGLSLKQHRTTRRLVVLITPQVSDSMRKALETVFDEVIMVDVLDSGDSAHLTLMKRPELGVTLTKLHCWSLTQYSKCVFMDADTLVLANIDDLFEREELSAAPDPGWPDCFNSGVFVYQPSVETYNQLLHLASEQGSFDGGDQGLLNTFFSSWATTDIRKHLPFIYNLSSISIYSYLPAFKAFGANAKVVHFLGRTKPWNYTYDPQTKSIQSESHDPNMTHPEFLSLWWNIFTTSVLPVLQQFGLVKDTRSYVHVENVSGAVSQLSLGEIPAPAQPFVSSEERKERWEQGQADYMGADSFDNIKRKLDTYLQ
The assay is described as follows: Glycogenin assay: transfer of glucose or xylose from the UDP-sugar to exogenous glycoside acceptors. The assay is classed as biochemical, beef. The conditions noted are these: for inhibition of transfer of [3H]glucose to DBM by glycogenin: inhibitor 0.1-0.5 mM, acceptor DBM; for activity as glucose acceptor substrate for glycogenin: UDP-[3H]glucose donor, 60 min at 37° C. An excerpt: Glycogenin is a self-glycosylating glycosyltransferase which can be obtained from muscle and which can also be obtained from rat and beef kidney. The enzyme is capable of transferring glucose and xylose from the respective UDP-sugar substrates to itself and also of transferring these sugars to exogenous acceptors, such as dodecyl-β-D-maltoside, tetradecyl-β-D-maltoside, octyl-β-D-maltoside, octyl-α-D-glucoside and other glycosides, as described herein.
Fresh beef kidney was purchased from a local slaughter house. Purification of glycogenin from kidney involves the following steps: chromatography of a 105,000×g supernatant from a homogenate of beef kidney on DE-53 cellulose, chromatofocusing and chromatography on a column of UDP-glucuronic acid-agarose, which was eluted with cytidine 5'-diphosphate(CDP). […] The protein concentration of the affinity purified enzyme was determined to be 10 μg/ml with the Quantigold protein reagent (Diversified Biotech, Newton Centre, Mass.).
An appropriate sample of UDP-[^3 H] glucose or UDP-[^3 H] xylose (supplied in 70% ethanol by the manufacturer) was evaporated to dryness with a gentle stream of filtered air and dissolved in 50 mM Tris Cl, pH 7.4/75 mM BAL/1.5 mM ATP. […] After incubation for 60 min at 37° C. product formation was measured by either of the two procedures described below.
Product isolation by precipitation with trichloracetic acid. After completed incubation, 1% bovine serum albumin (50 μl) and 10% trichloracetic acid/4% phosphotungstic acid (150 μl) were added, and the mixture was vortexed and kept on ice for at least 15 min. The precipitate was sedimented by centrifugation in a microfuge and washed three times with 5% trichloroacetic acid. The bottom of the tube, containing the pellet, was clipped off with a dog nail clipper and dropped into a 6 ml scintillation vial, the protein was dissolved in 250 μl of 2M NaOH, and, after neutralization with 250 μl of 2M HCl, 4.5 ml of Ecolume was added, and the radioactivity was measured.
Product isolation by adsorption to SepPak C18 cartridges. The reaction mixture was brought to a, volume of 0.5 ml by addition of water and was heated to 100° C. for 1 min. After cooling to room temperature, the mixture was centrifuged, and a 10 μl aliquot was removed for measurement of total radioactivity. The remaining 490 μl was applied with the use of a 10 ml syringe to a SepPak C18 cartridge, which had been preconditioned by washing with 8 ml of 95% ethanol, 8 ml of 70% ethanol, and 20 ml of water. After sample application, the cartridge was washed with 2×9 ml of water, followed by an additional 2 ml portion of water, and adsorbed radioactive material was then eluted with 3×4 ml of 70% ethanol. Typically, no significant radioactivity was found in the last water wash, and most of the bound radioactive material was found in the first ethanol eluate.
Gel electrophoresis and autoradiography. SDS-PAGE was carried out with slight modification of Laemmli (Laemmli, U. K., Nature, 227:680-685 (1970)). A Hoefer vertical slab gel electrophoresis unit (Hoefer Scientific Instruments, San Francisco, Calif.) was used for casting and electrophoresing with a 10% (w/v) acrylamide separating gel and a 4.5% (w/v) acrylamide stacking gel. Reaction mixtures, with total volumes of 75 μl, containing 0.15 μCi (0.26 μM) UDP-[^3 H] glucose, 10 ng of affinity purified enzyme (intact or heat denatured), in the absence and presence of increasing concentrations of DBM were incubated at 37° C. for 60 min. The reaction was terminated by addition of 5 μl of water and 20 μl of sample reducing buffer (5× concentrated) to give final concentrations of 40 mM Tris-Cl, pH 6.8, 1.5% (w/v) SDS, 6% (v/v) glycerol, 100 mM DTT and 0.002% (w/v) bromophenol blue and heated to 100° C. for 3 min. The supernatant was applied to the gel and electrophoresed at 7.5 mA for 16 hours. […]

Assay [2] concerns the target T2, Rabbit muscle glycogen synthase (Oryctolagus cuniculus, UniProt P13834).
T2 construct: purchased Sigma Chemical Co; host or cells: rabbit muscle
T2 sequence (P13834 1-735): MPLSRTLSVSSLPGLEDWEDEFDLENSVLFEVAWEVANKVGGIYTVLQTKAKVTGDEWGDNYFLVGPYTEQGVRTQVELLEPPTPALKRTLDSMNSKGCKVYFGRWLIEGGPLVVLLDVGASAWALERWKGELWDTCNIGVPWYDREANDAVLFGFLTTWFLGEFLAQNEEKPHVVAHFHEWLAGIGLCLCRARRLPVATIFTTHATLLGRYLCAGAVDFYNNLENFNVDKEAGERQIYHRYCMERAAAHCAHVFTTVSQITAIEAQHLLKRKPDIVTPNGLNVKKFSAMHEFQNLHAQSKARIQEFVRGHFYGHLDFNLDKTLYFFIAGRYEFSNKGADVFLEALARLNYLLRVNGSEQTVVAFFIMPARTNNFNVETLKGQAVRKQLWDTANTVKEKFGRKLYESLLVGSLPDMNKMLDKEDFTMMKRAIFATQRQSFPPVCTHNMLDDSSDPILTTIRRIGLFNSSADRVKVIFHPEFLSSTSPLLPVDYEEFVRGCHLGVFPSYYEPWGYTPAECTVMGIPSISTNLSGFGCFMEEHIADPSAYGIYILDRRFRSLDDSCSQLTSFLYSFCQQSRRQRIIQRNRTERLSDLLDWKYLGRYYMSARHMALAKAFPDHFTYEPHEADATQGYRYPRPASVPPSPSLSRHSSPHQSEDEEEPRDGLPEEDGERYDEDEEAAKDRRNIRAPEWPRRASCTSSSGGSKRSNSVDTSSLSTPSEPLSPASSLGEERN
The assay is described as follows: Glycogen synthase assay: glucose transfer from UDP-glucose to acceptor. The assay is classed as biochemical. The note with it: for rank as glucose acceptor for glycogen synthase: octyl-, dodecyl- and tetradecyl-maltosides compared, with G-6-P. Here is the method: Rabbit muscle glycogen synthase obtained from Sigma Chemical Co., (7.6 μg) was incubated with 0.45 μCi UDP-[^3 H]glucose (specific activity of 10.4 Ci/mmol), 1 mM UDP-glucose (glucose donor), 10 mM glucose-6-phosphate (the natural activator of glycogen synthase) and 1 mg glycogen (glucose acceptor) in 25 mM EDTA/5 mM DTT/100 mM glycine. NaOH buffer, pH 8.6 in a total volume of 100 μl for 30-240 minutes at 37° C. At different time points, glycogen was precipitated from the reaction mixtures with ethanol and the precipitate washed to remove any unincorporated radiolabel. The glycogen precipitate was then solubilized and counted in a liquid scintillation counter to quantitate the amount of [^3 H]glucose incorporated into glycogen.
Results. When DBM (0.5 mM) replaces glycogen as the glucose acceptor in the incubation mixture, a linear transfer of glucose to DBM with time is seen up to 4 hours, with the glucose transfer amounting to about 20% of the maximal value seen with glycogen (using the SepPak C18 assay).
When glycogen synthase was incubated for 24 hours with G-6-P, UDP-[^3 H]glucose and 0.5 mM DBM, several products of glucose transfer to DBM could be visualized following separation by thin layer chromatography and autoradiography. These products corresponded to the dodecyl-maltotrioside,-tetraoside, -pentaoside, -hexaoside, -heptaoside and higher oligosaccharide derivatives of DBM. […] Therefore, DBM and other suitable glycosides can serve as glucose acceptors for both glycogen synthase and glycogenin to promote glucose disposal in conditions such as hyperglycemia and diabetes mellitus. Providing an abundance of acceptor substrates in tissues, such as liver, which has a smaller number of extremely large glycogen molecules can alleviate the problem of excessive glycogen deposition in the glycogen storage diseases by promoting glucose disposal into more readily handled smaller glucose polymers built on DBM or other glycosides.

With `Nc1ccn([C@@H]2O[C@H](COP(=O)(O)OP(=O)(O)O)[C@@H](O)[C@H]2O)c(=O)n1` [Cytidine 5'-diphosphate, reference compound], the figures for the “inhibition of transfer of [3H]glucose to DBM by glycogenin” value in assay [1] and in assay [1] (listed as CDP) were “inhibited the transfer of [^3 H]glucose to DBM by glycogenin in a dose dependent manner” and “dose-dependent inhibition”, respectively.
As to `CCCCCCCCCCCCO[C@@H]1O[C@H](CO)[C@@H](O[C@H]2O[C@H](CO)[C@@H](O)[C@H](O)[C@H]2O)[C@H](O)[C@H]1O` [DBM, dodecyl-β-D-maltoside], in assay [1], the “activity as glucose acceptor substrate for glycogenin” value (“activity … for glycogenin” for short) is “dose-dependent fashion; also recorded: best acceptor for glucose”. Further, the “xylose acceptor for glycogenin (product formed)” value in assay [1] (UDP-[3H]xylose as donor substrate) is “DBM-xylose was formed”. Also, the “glucose acceptor activity of DBM relative to octyl-β-D-maltoside” value in assay [1] (comparator octyl-β-D-maltoside) is “four times better”. Besides, the “glucose acceptor activity of DBM relative to tetradecyl-β-D-maltoside” value in assay [1] (comparator tetradecyl-β-D-maltoside) is given as “twice as active”. The “glucose transfer relative to maximal value seen with glycogen” value in assay [2] (0.5 mM acceptor replacing glycogen, up to 4 hours, SepPak C18 assay) is “about 20%”. The “acceptor concentration giving near-maximal glycogen synthase activity” value in assay [2] (0.1 to 10 mM acceptor, 60 min incubation) is “less than 0.5 mM”. Besides, the “length of acceptor-linked oligosaccharide products formed by glycogen synthase” value in assay [2] (24 hours with G-6-P, UDP-[3H]glucose, 0.5 mM acceptor, TLC and autoradiography) was “greater than seven glucose residues”.
As for `CCCCCCCCO[C@H]1O[C@H](CO)[C@@H](O)[C@H](O)[C@H]1O` [Octyl-α-D-glucoside], the “activity … for glycogenin” value in assay [1] is “effective glucose acceptor”.
On the same count and under the same terms, the same measure for `CCCCCCCCCCO[C@@H]1O[C@H](CO)[C@@H](O[C@H]2O[C@H](CO)[C@@H](O)[C@H](O)[C@H]2O)[C@H](O)[C@H]1O` [decyl-β-D-maltoside]: “capable of serving as acceptor substrates”; for `CCCCCCCCO[C@@H]1O[C@H](CO)[C@@H](O)[C@H](O)[C@H]1O` [octyl-β-D-glucoside]: “activities are low”.
Consider `CCCCCCCCO[C@@H]1O[C@H](CO)[C@@H](O[C@H]2O[C@H](CO)[C@@H](O)[C@H](O)[C@H]2O)[C@H](O)[C@H]1O` [octyl-β-D-maltoside], for which the “activity … for glycogenin” value in assay [1] was “capable of serving as acceptor substrates”. The “rank as glucose acceptor for glycogen synthase” value in assay [2] was “best acceptor”.
In the case of `CCCCCCCCS[C@@H]1O[C@H](CO)[C@@H](O)[C@H](O)[C@H]1O` [octyl-β-D-thioglucoside], the “activity … for glycogenin” value in assay [1] is “more active as a glucose acceptor than octyl-β-D-glucoside”.
`CCCCCCCCCCCCCCO[C@@H]1O[C@H](CO)[C@@H](O[C@H]2O[C@H](CO)[C@@H](O)[C@H](O)[C@H]2O)[C@H](O)[C@H]1O` [tetradecyl-β-D-maltoside]: the “activity … for glycogenin” value in assay [1] was “capable of serving as acceptor substrates”. For the same compound, in assay [2], the “rank as glucose acceptor for glycogen synthase” value was “followed by DBM and tetradecylmaltoside”.
Turning to dodecyl-β-D-sucrose, the “activity … for glycogenin” value in assay [1] is given as “much lower activity”.
